Tests used:
[1] = tested on: uterus of ovariectomized rat; test: Uterus weight in ovariectomized (OVX) rat; format: in vivo; conditions: 4 μg/kg/day subcutaneous, vs negative solvent group
Method: 8-week-old female Crl:CD (SD) rats were obtained from Charles River Laboratories Japan, Inc. and individually identified by the ear punching method on the receipt date. Then, an acclimatization period was established for 1 week. The animals were raised in a rearing room under a set environment involving a temperature of 22±3° C., a humidity of 50±20%, air ventilation from 13 to 17 times/hour, and a lighting time from 8:00 to 20:00. During the acclimatization period, the rats were allowed to freely ingest solid feed CRF-1 (Oriental Yeast Co., Ltd.). Since the feeding with CRF-1, the rats were allowed to freely ingest customized feed AIN-93G (Oriental Yeast Co., Ltd.) free from components derived from soybeans.
On the end date of acclimatization and the following day, the flank cavity was opened under isoflurane anesthesia to harvest the right and left ovaries including fallopian tubes. Other non-OVX rats were subjected to only opening and suture (sham surgery). Immediately thereafter, an antibiotic was subcutaneously administered at a dose of 100 μl/animal. After the surgery, the sham surgery or OVX animals were given customized feed and raised for approximately 1 week.
From 1.5 hours before a shift from the light phase to the dark phase (18:30), a negative solvent (DMSO) or a test substance was subcutaneously administered at a dose of 0.5 ml/kg to the back of the neck according to Table 3 described below using a syringe and an injection needle.
After the completion of all procedures of measurement and analysis, the rats were euthanized by blood letting under isoflurane anesthesia, and the uterus was harvested. Wet weights were measured.
Skin temperatures differed largely among individuals, and the Smirnov-Grubbs test was conducted in order to exclude outliers beforehand. Results of measuring tail skin temperatures and results of measuring uterus weights were statistically analyzed by testing using the Dunnett's test.

ERα LBD = molecular target: T1, ERα LBD (Homo sapiens, UniProt P03372); test: Ability to bind to ERα: pBIND-ERα LBD / GAL4 luciferase reporter in HEK293 cells; format: cell-based; set-up: key: firefly luciferase / Renilla luciferase luminescence ratio; conditions: negative control 0.00847035
T1 construct: host or cells: HEK293
T1 sequence (P03372 311-547 limits assumed): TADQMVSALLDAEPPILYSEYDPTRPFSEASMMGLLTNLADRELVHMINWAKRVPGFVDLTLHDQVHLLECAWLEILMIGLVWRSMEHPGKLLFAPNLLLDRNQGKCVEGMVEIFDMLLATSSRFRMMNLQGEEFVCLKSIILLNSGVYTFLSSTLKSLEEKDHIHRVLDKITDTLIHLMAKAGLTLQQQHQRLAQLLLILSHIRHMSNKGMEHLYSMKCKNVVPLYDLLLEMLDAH
Method: (§1) A human kidney-derived cell line HEK293 was cultured (37° C., 5% CO2) in Dulbecco's modified Eagle medium (hereinafter, abbreviated to DMEM) containing 10% (v/v) fetal bovine serum (FBS) and penicillin/streptomycin.
(§2) 2) Measurement of Binding Activity Against ERs
(§3) Specifically, HEK293 cells were inoculated at a cell density of 4.0×10^4 cells/well to a 96-well plate. After 12 hours therefrom, the medium was replaced with a culture solution (DMEM containing 5% (v/v) charcoal-treated serum). The cells were cotransfected with pBIND-ERα for the expression of ERα LBD or pBIND-ERβ for the expression of ERβ LBD (Promega Corp.) and pGL4.35[luc2P/9XGAL4UAS/Hygro](Promega Corp.) using Lipofectamine 2000 (Invitrogen Corp.) according to the protocol attached to the product. 24 hours after transfection, the medium was replaced with a culture solution containing a test sample, followed by culture for another 24 hours. The activity measurement of firefly luciferase (index for the ligand binding activity of ER) and Renilla reniformis luciferase (index for the transfection efficiency of the plasmids) was carried out using Dual-Glo™ Luciferase Assay System (Promega Corp.) according to the attached protocol. The luminescence intensity of the firefly luciferase was divided by the luminescence intensity of the Renilla reniformis luciferase to calculate a relative light unit (RLU).

ERβ LBD = molecular target: T2, ERβ LBD (Homo sapiens, UniProt Q92731); test: Ability to bind to ERβ: pBIND-ERβ LBD / GAL4 luciferase reporter in HEK293 cells; format: cell-based; set-up: key: RLU = firefly luminescence / Renilla luminescence; conditions: negative control 0.0118997
T2 construct: host or cells: HEK293
T2 sequence (Q92731 264-498 limits assumed): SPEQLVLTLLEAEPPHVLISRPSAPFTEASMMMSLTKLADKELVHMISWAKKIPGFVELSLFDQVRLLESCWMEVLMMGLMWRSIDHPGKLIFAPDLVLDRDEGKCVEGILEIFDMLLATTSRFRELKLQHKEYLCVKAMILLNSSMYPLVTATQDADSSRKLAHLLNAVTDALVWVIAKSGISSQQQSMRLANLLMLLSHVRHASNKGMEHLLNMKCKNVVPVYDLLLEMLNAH
Method: This evaluation system is a system exploiting difference in the sequence of the ligand binding domain (LBD) between ERα and ERβ (J Endocrinol 163: 379-383 (1999)), and enables selective activation of ERβ to be evaluated by determining the binding of a ligand to LBD and the activation of ER.
as §1, §2
as §3, with “This measurement was carried out according to the method described in JP-B-5990058. Specifically,” for “Specifically,”

ERα = molecular target: T3, ERα (Homo sapiens, UniProt P03372); test: Ability to activate transcription mediated by ERα (pcDNA3-ERα, pERE luciferase, HEK293 cells); format: cell-based; conditions: negative control 0.004573
T3 construct: host or cells: HEK293
T3 sequence (P03372 1-595): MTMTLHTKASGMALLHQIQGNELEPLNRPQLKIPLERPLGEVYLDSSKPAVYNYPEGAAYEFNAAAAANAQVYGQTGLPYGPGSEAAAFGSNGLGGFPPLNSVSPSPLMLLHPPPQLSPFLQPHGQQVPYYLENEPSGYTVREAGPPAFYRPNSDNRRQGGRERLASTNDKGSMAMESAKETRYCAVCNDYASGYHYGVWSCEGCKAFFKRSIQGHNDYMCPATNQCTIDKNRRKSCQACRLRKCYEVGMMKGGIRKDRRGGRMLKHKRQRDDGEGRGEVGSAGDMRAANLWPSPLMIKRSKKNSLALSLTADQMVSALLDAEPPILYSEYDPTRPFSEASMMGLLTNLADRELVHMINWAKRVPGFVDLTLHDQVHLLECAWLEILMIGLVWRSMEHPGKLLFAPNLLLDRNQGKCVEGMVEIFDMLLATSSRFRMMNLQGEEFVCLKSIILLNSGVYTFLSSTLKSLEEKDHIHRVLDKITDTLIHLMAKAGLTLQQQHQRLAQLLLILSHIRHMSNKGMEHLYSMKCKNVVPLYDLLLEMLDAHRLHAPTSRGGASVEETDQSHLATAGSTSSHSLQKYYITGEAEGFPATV
Method: (§4) 1) Experimental Method (Measurement of Transcriptional Activity Mediated by ERs)
(§5) HEK293 cells were inoculated at a cell density of 4.0×10^4 cells/well to a 96-well plate. After 12 hours therefrom, the medium was replaced with a culture solution (DMEM containing 5% (v/v) charcoal-treated serum). The cells were cotransfected with pcDNA3-ERα or pcDNA3-ERβ (Promega Corp.) and pERE and pRL-CMV (Promega Corp.) using Lipofectamine 2000 (Invitrogen Corp.) according to the protocol attached to the product. 24 hours after transfection, the medium was replaced with a culture medium containing a test sample, followed by culture for another 24 hours. Then, luciferase activity was measured using Dual-Glo™ Luciferase Assay System (Promega Corp.) according to the attached protocol. The luminescence intensity of firefly luciferase (index for the ability to activate transcription mediated by ERE) was divided by the luminescence intensity of Renilla reniformis luciferase (index for the transfection efficiency of the plasmids) to calculate a relative light unit (RLU).

ERβ = molecular target: T4, ERβ (Homo sapiens, UniProt Q92731); test: Ability to activate transcription mediated by ERβ (pcDNA3-ERβ, pERE luciferase, HEK293 cells); format: cell-based; conditions: negative control 0.001475
T4 construct: host or cells: HEK293
T4 sequence (Q92731 whole entry): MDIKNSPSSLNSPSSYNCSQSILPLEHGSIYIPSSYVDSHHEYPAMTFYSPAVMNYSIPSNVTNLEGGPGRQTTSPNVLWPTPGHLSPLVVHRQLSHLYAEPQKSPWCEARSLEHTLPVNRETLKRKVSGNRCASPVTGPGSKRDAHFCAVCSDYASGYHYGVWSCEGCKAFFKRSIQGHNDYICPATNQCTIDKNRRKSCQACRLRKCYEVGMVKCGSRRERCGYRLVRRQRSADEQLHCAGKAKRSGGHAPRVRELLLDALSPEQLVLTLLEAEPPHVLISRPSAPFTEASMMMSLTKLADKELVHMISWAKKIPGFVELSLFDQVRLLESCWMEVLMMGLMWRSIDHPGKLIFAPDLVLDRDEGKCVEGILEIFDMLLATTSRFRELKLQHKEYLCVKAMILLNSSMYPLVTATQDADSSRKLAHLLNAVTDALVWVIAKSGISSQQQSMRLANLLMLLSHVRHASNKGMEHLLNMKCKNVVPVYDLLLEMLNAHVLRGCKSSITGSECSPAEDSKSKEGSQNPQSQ
Method: as §4, §5

| Compound | relative light unit (RLU), ligand binding activity ERα (ERα LBD; 0.01 nM) | relative light unit (RLU), ligand binding activity ERα (ERα LBD; 0.1 nM) | relative light unit (RLU), ligand binding activity ERα (ERα LBD; 1 nM) | relative light unit (RLU), ligand binding activity ERα (ERα LBD; 10 nM) | relative light unit (RLU), ligand binding activity ERα (ERα LBD; 100 nM) | relative light unit (RLU), ligand binding activity ERβ (ERβ LBD; 0.01 nM) | relative light unit (RLU), ligand binding activity ERβ (ERβ LBD; 0.1 nM) | relative light unit (RLU), ligand binding activity ERβ (ERβ LBD; 1 nM) | relative light unit (RLU), ligand binding activity ERβ (ERβ LBD; 10 nM) | relative light unit (RLU), ligand binding activity ERβ (ERβ LBD; 100 nM) | relative light unit (RLU), transcription activation ERα (ERα; 0.1 pM) | relative light unit (RLU), transcription activation ERα (ERα; 1 pM) | relative light unit (RLU), transcription activation ERα (ERα; 10 pM) | relative light unit (RLU), transcription activation ERα (ERα; 100 pM) | relative light unit (RLU), transcription activation ERα (ERα; 1000 pM) | relative light unit (RLU), transcription activation ERα (ERα; 10000 pM) | relative light unit (RLU), transcription activation ERβ (ERβ; 0.01 pM) | relative light unit (RLU), transcription activation ERβ (ERβ; 0.1 pM) | relative light unit (RLU), transcription activation ERβ (ERβ; 1 pM) | relative light unit (RLU), transcription activation ERβ (ERβ; 10 pM) | other results |
| --- | --- | --- | --- | --- | --- | --- | --- | --- | --- | --- | --- | --- | --- | --- | --- | --- | --- | --- | --- | --- | --- |
| C[C@]12CC[C@@H]3c4ccc(O)cc4CC[C@H]3[C@@H]1CC[C@@H]2O [E2, estradiol, reference compound] |  |  |  |  |  |  |  |  |  |  |  |  |  |  |  |  |  |  |  |  | uterus wet weight (FIG. 6) [1]: significantly increased |
| Oc1ccc(CC(C=CF)c2ccc(O)cc2)cc1 (stereo not drawn) [Compound 8, 4,4′-(4-fluorobut-3-ene-1,2-diyl)diphenol] | 0.005812 | 0.005926 | 0.007223 | 0.1184 | 0.423 | 0.01223 | 0.5254 | 0.9979 | 1.068 | 1.031 |  |  |  |  |  |  |  |  |  |  |  |
| Oc1ccc(CC(C=C(F)F)c2ccc(O)cc2)cc1 (stereo not drawn) [Compound 7, 4,4′-(4,4-difluorobut-3-ene-1,2-diyl)diphenol] | 0.02799 | 0.0373 | 0.02919 | 0.06191 | 1.588 | 0.06046 | 0.9104 | 1.877 | 2.074 | 2.408 | 0.006825 | 0.008059 | 0.008285 | 0.01621 | 0.04026 | 0.04776 | 0.002068 | 0.002153 | 0.00383 | 0.01191 | relative light unit (RLU), transcription activation ERβ (ERβ; 100 pM): 0.02336; relative light unit (RLU), transcription activation ERβ (ERβ; 1000 pM): 0.03253; relative light unit (RLU), transcription activation ERβ (ERβ; 10000 pM): 0.03471 |
| 4-(4,4-difluoro-2-(4-hydroxyphenyl)but-3-en-1-yl)-3,5 [Compound 18-F] | 0.03608 | 0.1312 | 1.177 | 2.968 | 3.391 | 0.6452 | 2.101 | 2.317 | 2.025 | 2.304 | 0.01194 | 0.01337 | 0.01971 | 0.04067 | 0.06395 | 0.06152 | 0.003231 | 0.00681 | 0.01281 | 0.03479 | relative light unit (RLU), transcription activation ERβ (ERβ; 100 pM): 0.03642; relative light unit (RLU), transcription activation ERβ (ERβ; 1000 pM): 0.03659; relative light unit (RLU), transcription activation ERβ (ERβ; 10000 pM): 0.03706 |
